Activity calls are given as the source filed them.
Key:
[1] = target: Neuropeptides B/W receptor type 1 (Homo sapiens, UniProt P48145); test: Fluorescence-based dose response cell-based high throughput screening assay to identify antagonists of the G-protein coupled receptor 7 (GPR7). [Related pubchem assays: 1952 (Screening assay (GPR7 antagonists).), 1880 (Summary AID.)]; assay type: functional
[2] = target: Melanin-concentrating hormone receptor 1 (Homo sapiens, UniProt Q99705); test: Fluorescence-based counterscreen for antagonists of the G-protein coupled receptor 7 (GPR7): cell-based high throughput dose response assay to identify antagonists of the melanin-concentrating hormone receptor 1 (MCHR1).; assay type: functional
Chain of Melanin-concentrating hormone receptor 1 (Q99705 whole entry): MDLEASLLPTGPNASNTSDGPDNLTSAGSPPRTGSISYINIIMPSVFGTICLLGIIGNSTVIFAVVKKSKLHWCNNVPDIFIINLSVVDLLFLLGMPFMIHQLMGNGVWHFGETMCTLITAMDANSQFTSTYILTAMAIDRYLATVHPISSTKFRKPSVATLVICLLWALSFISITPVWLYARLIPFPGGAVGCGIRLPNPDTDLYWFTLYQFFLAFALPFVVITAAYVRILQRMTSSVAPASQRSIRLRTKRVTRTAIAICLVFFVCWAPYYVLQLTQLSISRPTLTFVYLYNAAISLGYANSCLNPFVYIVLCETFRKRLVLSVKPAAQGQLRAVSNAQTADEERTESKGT

[3] = target: Dual specificity protein phosphatase 3 (Homo sapiens, UniProt P51452); test: VHR1 inhibitor Ki determination, SAR follow-up, biochemical, colorimetric (AID 2004)
Chain of Dual specificity protein phosphatase 3 (P51452 whole entry): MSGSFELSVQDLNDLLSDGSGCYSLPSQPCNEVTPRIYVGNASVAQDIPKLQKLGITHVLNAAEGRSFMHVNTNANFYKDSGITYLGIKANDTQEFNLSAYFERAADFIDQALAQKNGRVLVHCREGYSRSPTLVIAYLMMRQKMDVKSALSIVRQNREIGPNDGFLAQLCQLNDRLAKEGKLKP

[4] = test system: Streptococcus sp. 'group A'; test: growth inhibition of control SK(-) GAS strain, dose response, counter-screen for streptokinase expression inhibitor project, luminescence, kanamycin, BacTiterGlo, confirmation (AID 1900); assay type: functional, organism-based
[5] = target: Serine/threonine-protein phosphatase PP1-alpha catalytic subunit (Homo sapiens, UniProt P62136); test: PP1 phosphatase inhibitors, dose response, biochemical, fluorescence (AID 2403);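 note: phosphatase turnover of OMFP into fluorescent 3-O-methylfluorescein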
Chain of Serine/threonine-protein phosphatase PP1-alpha catalytic subunit (P62136 whole entry): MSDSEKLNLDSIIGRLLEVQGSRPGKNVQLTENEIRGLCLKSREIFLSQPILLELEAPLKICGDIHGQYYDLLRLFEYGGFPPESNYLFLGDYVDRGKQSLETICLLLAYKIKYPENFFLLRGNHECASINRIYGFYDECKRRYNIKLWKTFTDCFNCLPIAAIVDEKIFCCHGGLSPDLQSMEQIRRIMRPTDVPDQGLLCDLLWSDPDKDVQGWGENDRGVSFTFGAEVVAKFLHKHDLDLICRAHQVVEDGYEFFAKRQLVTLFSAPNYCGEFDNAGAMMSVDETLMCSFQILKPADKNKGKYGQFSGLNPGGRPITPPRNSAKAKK

[6] = target: T1, Alkaline phosphatase, tissue-nonspecific isozyme (Homo sapiens, UniProt P05186)
T1 sequence (P05186 whole entry): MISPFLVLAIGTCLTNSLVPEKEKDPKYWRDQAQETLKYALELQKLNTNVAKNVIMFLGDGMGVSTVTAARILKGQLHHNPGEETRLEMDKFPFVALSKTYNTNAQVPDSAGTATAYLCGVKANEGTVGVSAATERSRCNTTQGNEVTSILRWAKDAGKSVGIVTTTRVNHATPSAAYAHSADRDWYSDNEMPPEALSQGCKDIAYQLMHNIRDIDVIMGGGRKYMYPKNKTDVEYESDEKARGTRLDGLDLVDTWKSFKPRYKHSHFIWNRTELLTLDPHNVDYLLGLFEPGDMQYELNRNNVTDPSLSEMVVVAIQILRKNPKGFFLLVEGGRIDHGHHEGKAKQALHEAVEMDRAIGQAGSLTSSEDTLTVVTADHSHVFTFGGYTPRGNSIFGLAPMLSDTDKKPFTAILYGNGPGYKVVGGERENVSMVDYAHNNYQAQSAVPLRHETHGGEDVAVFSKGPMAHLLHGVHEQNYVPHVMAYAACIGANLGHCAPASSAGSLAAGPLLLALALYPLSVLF

Streptokinase A = target: T2, Streptokinase A (Streptococcus pyogenes serotype M1, UniProt P10520); test: S. pyogenes streptokinase expression inhibitors, potency, dose response, plasminogen activation absorbance, OD405 (AID 1914); assay type: functional, Streptococcus pyogenes M1 GAS;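 note: secreted streptokinase activity via plasminogen activation per viability signal from cell pellet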
T2 sequence (P10520 whole entry): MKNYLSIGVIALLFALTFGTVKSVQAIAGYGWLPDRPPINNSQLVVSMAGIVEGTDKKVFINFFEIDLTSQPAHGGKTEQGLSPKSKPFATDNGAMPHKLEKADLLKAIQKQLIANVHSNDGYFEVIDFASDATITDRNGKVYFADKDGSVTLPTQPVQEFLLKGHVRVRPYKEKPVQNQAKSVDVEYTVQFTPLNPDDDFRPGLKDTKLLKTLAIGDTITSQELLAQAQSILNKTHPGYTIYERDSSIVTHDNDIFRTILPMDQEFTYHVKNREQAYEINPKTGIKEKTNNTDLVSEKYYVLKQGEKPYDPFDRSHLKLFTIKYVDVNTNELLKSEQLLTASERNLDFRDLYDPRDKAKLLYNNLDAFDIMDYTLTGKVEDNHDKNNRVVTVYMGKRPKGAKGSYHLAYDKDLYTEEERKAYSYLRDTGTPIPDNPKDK

[7] = target: Serine/threonine-protein phosphatase (Homo sapiens, UniProt Q9BPW0); test: Counterscreen for inhibitors of PP1: fluorescence-based biochemical high throughput dose response assay to identify inhibitors of Protein Phosphatase 5 (PP5). [Related pubchem assays: 2034 (Summary (PP5 inhibitors)), 1987 (PP5 inhibitors in singlate), 2235 (PP1 inhibitors in singlate)]
Chain of Serine/threonine-protein phosphatase (Q9BPW0 whole entry): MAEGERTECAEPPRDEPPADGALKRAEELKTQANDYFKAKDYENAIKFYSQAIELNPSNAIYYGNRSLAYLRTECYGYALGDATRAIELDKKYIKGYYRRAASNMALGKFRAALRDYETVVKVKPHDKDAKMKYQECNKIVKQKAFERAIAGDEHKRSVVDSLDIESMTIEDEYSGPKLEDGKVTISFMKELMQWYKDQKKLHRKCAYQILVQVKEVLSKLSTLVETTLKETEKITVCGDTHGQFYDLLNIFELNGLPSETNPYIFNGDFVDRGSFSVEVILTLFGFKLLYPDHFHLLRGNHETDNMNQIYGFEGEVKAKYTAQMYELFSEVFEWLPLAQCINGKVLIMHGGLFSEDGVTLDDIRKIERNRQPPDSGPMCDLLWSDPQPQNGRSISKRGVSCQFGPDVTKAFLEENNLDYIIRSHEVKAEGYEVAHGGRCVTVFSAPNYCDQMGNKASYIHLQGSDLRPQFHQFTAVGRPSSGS

Streptococcus = test: Group A Streptococcus viability loss, dose response, counter-screen for streptokinase expression inhibitor project, luminescence, BacTiterGlo (AID 1915); assay type: functional, organism-based;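 note: potency for reduction of bacterial viability or growth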
Nonstructural protein 1 = Nonstructural protein 1 (Influenza A virus, UniProt Q194T2); assay type: functional, Influenza A virus (A/California/07/2009(H1N1))
Chain of Nonstructural protein 1 (Q194T2 whole entry): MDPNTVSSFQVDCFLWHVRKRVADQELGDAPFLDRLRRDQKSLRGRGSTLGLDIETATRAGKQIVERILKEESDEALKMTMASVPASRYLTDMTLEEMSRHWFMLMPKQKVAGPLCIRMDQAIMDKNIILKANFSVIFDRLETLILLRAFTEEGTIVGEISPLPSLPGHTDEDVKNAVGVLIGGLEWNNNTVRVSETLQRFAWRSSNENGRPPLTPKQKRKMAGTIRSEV

Vero = Vero cell cytotoxicity, cytotoxicity control for flavivirus capping enzyme inhibitors (AID 588742); assay type: functional; details: Chlorocebus sabaeus
[8] = target: Disintegrin and metalloproteinase domain-containing protein 17 (Homo sapiens, UniProt P78536); test: exosite inhibitors of ADAM17, dose response, biochemical (AID 743260)
[9] = target: Lysosomal acid glucosylceramidase (Homo sapiens, UniProt P04062); test: Dose response cell-based high throughput screening assay to identify enhancers of beta-glucosidase activity. [Related pubchem assays: 784 ]; assay type: functional
Chain of Lysosomal acid glucosylceramidase (P04062 whole entry): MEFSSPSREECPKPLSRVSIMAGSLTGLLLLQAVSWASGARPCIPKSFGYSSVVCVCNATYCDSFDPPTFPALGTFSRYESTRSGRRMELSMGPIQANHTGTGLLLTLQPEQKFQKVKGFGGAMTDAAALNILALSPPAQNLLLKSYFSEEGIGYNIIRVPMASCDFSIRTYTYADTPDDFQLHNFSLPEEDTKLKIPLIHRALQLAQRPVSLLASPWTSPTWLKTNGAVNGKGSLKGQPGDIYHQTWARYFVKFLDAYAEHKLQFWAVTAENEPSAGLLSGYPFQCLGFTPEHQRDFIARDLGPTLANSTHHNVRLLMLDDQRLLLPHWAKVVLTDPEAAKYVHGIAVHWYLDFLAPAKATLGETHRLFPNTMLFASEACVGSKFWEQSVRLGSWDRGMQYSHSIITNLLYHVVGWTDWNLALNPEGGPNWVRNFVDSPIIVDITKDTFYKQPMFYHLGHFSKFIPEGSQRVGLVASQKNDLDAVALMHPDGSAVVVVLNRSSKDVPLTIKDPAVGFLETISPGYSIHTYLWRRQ

Aspartyl aminopeptidase = target: T3, Aspartyl aminopeptidase (Plasmodium falciparum 3D7, UniProt Q8I2J3)
T3 sequence (Q8I2J3 whole entry): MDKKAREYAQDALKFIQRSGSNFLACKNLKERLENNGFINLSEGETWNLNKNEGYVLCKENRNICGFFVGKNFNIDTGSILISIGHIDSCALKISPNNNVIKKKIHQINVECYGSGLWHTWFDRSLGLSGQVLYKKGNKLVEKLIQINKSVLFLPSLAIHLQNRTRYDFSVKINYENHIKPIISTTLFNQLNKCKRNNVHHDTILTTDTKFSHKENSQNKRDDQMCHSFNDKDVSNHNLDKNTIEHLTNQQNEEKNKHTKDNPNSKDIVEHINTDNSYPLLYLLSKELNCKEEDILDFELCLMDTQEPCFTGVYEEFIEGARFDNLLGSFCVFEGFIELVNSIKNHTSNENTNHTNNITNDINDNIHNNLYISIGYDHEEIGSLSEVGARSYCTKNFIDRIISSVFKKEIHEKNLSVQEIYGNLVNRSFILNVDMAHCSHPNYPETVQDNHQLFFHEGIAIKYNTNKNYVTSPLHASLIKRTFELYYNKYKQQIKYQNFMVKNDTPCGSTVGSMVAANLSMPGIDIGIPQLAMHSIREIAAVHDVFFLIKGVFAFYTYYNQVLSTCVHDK

Procathepsin L = Procathepsin L (Homo sapiens, UniProt P07711)
Chain of Procathepsin L (P07711 whole entry): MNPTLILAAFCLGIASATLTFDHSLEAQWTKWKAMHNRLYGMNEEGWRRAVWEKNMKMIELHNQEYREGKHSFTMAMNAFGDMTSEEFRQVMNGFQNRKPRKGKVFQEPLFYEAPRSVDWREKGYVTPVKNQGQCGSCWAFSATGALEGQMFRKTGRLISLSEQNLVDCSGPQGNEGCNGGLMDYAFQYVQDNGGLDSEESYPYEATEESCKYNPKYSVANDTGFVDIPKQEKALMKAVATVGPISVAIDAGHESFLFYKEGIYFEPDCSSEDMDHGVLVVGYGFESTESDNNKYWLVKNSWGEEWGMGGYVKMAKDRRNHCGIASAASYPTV

Cytochrome P450 2D6 = Cytochrome P450 2D6 (Homo sapiens, UniProt P10635); test: qHTS Assay for Inhibitors and Substrates of Cytochrome P450 2D6. [Related pubchem assays: 410 ]; assay type: ADME; details: read-out: Potency
Chain of Cytochrome P450 2D6 (P10635 whole entry): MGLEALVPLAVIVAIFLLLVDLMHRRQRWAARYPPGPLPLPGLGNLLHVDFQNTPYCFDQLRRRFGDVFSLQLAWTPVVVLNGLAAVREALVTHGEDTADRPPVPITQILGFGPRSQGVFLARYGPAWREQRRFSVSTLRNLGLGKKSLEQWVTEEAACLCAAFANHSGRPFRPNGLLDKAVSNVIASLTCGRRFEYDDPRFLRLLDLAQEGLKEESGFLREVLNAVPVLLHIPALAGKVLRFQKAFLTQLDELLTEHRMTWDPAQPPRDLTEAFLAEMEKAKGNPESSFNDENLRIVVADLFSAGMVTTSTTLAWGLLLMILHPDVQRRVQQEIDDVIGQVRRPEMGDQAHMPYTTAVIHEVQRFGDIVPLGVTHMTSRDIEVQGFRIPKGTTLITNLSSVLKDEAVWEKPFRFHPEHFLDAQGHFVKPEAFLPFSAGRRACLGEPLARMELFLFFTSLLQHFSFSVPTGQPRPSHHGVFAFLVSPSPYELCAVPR

[10] = HEp-2 cell cytotoxicity, dose response, cytotoxicity control for RSV inhibitor project, HTS (AID 2410); assay type: functional; details: human respiratory syncytial virus
[11] = target: E3 ubiquitin-protein ligase Mdm2 (Homo sapiens, UniProt Q00987); test: enhancers of MDM2-luciferase reporter signal, concentration-effect titration, project on inhibitors of MDM2 ubiquitin ligase, cellular assay, luminescent readout, 384-well plate format (AID 1394); assay type: functional;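 note: MDM2 E3 inhibitors raise luminescence so EC50 is for signal enhancement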
Chain of E3 ubiquitin-protein ligase Mdm2 (Q00987 whole entry): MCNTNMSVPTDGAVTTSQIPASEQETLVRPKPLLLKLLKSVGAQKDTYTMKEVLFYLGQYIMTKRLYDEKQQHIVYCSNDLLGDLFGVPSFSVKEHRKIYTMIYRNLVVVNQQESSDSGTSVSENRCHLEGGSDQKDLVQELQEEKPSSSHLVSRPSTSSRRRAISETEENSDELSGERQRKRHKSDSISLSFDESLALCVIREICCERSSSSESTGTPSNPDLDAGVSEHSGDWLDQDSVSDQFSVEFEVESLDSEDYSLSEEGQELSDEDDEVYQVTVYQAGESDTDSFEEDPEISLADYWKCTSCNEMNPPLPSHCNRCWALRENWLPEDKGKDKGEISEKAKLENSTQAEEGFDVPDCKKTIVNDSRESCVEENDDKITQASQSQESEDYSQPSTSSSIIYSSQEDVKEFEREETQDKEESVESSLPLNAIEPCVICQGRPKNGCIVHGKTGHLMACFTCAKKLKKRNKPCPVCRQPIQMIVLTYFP

SUMO-activating enzyme [12] = target: T4, SUMO-activating enzyme (Homo sapiens, UniProt Q9UBT2); test: SUMOylation inhibitor hit validation, confirmation, SUMOylation inhibitor project, biochemical, AlphaScreen (AID 2018); assay type: functional
T4 sequence (Q9UBE0 whole entry): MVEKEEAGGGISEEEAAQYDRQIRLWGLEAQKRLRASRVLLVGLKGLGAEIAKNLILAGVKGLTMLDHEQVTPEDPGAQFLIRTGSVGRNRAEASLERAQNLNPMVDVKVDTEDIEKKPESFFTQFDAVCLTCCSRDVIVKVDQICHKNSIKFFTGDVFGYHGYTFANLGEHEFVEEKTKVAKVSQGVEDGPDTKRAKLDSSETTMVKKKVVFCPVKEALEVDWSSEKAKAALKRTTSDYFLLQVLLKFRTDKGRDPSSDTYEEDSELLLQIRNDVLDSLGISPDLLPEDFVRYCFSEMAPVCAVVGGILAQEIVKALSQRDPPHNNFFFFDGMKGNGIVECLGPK
T4 sequence (Q9UBT2 whole entry): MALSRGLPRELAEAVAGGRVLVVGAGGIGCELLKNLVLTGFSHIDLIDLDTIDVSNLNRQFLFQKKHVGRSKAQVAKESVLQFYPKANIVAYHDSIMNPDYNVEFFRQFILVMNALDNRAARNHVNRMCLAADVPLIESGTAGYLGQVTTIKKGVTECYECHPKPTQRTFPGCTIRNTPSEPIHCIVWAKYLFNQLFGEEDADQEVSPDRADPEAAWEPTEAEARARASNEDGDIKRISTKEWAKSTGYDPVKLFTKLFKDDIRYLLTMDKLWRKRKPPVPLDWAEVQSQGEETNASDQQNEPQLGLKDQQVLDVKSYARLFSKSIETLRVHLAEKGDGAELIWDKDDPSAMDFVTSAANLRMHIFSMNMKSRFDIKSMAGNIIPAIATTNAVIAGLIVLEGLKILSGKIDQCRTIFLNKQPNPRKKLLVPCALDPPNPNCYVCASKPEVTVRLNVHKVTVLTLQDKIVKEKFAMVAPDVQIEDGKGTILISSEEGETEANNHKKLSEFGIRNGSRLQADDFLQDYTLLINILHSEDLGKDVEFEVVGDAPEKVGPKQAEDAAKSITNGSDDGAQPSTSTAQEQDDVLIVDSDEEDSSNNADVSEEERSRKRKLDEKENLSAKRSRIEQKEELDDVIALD

SUMO-activating enzyme [13] = target: T4, SUMO-activating enzyme; test: inhibitors of in vitro SUMOylation cascade, primary screen, biochemical, HTRF, uHTS (AID 2006); assay type: protein-complex assay
[14] = microbe, parasite or virus in culture; assay type: functional; details: Mycobacterium tuberculosis
Hexokinase HKDC1 = target: T5, Hexokinase HKDC1 (Homo sapiens, UniProt Q2TB90); test: HKDC1 hexokinase inhibitors, dose response, biochemical, W721R variant (AID 504729); assay type: functional
T5 sequence (Q2TB90 whole entry): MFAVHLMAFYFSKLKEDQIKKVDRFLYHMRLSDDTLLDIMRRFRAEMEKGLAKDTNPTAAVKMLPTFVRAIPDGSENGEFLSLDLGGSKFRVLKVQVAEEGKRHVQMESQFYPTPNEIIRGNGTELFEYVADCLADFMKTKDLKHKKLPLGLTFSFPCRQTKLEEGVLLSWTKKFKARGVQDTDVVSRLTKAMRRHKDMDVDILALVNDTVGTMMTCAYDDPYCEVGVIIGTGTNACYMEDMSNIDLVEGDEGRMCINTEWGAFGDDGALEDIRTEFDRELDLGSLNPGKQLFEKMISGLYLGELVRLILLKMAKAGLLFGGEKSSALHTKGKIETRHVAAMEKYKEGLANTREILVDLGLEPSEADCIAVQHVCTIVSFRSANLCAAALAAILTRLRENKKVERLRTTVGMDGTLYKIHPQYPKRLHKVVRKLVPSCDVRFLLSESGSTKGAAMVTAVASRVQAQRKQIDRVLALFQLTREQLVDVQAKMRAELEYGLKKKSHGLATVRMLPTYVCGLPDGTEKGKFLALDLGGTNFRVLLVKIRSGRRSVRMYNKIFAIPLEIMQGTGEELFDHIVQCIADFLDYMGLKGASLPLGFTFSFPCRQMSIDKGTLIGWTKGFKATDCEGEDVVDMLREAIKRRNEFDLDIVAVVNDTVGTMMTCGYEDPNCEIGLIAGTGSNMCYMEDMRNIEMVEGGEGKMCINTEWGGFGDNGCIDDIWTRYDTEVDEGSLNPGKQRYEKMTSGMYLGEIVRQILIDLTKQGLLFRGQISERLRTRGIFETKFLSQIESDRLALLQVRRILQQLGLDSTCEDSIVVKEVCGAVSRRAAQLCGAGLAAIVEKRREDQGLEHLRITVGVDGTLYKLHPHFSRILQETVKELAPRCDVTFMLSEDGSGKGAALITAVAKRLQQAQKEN

Chain of Neuropeptides B/W receptor type 1 (P48145 whole entry): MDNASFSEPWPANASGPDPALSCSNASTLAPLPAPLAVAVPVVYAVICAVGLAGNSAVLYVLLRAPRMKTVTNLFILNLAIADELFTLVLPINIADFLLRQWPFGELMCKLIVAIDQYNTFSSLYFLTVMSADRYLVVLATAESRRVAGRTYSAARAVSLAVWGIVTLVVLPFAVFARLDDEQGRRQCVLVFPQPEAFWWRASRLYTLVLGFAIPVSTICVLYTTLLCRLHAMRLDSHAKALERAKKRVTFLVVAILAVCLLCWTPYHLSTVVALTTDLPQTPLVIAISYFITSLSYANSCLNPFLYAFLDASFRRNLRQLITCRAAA

Which IC50 [1] does the source give for `O=C(CCN(CCO)Cc1ccccc1)Nc1ccc(Br)cc1` here?
The IC50 was > 14.6 µM (not active).

And the IC50 [2]?
The IC50 was 17.6 µM (not active).

With `Fc1c(F)c(C(F)(F)F)c(F)c(F)c1Oc1cccc2cccnc12` as the compound, how does the Ki [3] read?
The Ki was 122 µM (inactive).

Which EC50 [4] does the source give for `Oc1c(C(c2ccccn2)N2CCCCC2)cc(Cl)c2cccnc12` (configuration not stated) here?
Its EC50 is 6.02 µM (active).

What about the IC50 [5] of the same compound?
The IC50 was 2.48 µM (active).

What about the EC50 [6] of the same compound?
The EC50 was 81.1 µM (not active).

What about the EC50 (Streptokinase A) of the same compound?
Its EC50 is > 150 µM (not active).

And the IC50 [7]?
The IC50 was 42.3 µM (not active).

What about the EC50 (Streptococcus) of the same compound?
Its EC50 is 15.4 µM (active).

What about the IC50 (Nonstructural protein 1) of the same compound?
The IC50 was 8.02 µM (active).

What about the CC50 (Vero) of the same compound?
The CC50 was 31.4 µM (active).

And the IC50 [8]?
Its IC50 is 17 µM (inactive).

For `CCCCNC(=O)C1CCCN1C(=O)Nc1cccc(OC)c1` (configuration not stated), which EC50 [9] is on record?
Its EC50 is > 50 µM (not active).

What does the source list for `CN1C(=O)N(c2cccc3ccccc23)C(n2cncn2)C1(C)C` (configuration not stated)?
IC50 (Aspartyl aminopeptidase): 1.8 µM (active); IC50 (Procathepsin L): > 59.6 µM (not active)

For `C=C(C)C(O)C(CC/C=C(\C)C(=O)OCC)OC` (configuration not stated), which AC50 (Cytochrome P450 2D6) is on record?
The AC50 was 3.16 µM (inconclusive).

For `COc1cc(NC(=O)c2cnc(N)s2)cc(C(=O)Nc2cccc(C(F)(F)F)c2)c1`, which CC50 [10] is on record?
The CC50 was 23.6 µM (active).

What about the EC50 [11] of the same compound?
Its EC50 is 22.9 µM (not active).

What about the IC50 (SUMO-activating enzyme [12]) of the same compound?
Its IC50 is 10.8 µM (active).

What about the IC50 (SUMO-activating enzyme [13]) of the same compound?
The IC50 was 34.5 µM (active).

What about the CC50 [14] of the same compound?
Its CC50 is > 40 µM (active).

And the IC50 (Hexokinase HKDC1)?
The IC50 was 10.5 µM (active).

Source: ChEMBL document CHEMBL1201862, “PubChem BioAssay data set” (2004)
